How the values were obtained:
[1] = tested on: FL5-12 lymphocytes; experiment: IL3 depletion competition assay for cytokine-independent survival of FL5-12 lymphocytes; type: cell-based, murine
Experimental: An established in vitro assay of hematopoietic transformation (Plas, Talapatra, Edinger, Rathmell, & Thompson, 2001) was used to identify the key oncogenic activities within the 17˜92 cluster and its paralogues. All miRNAs representing families of unique seed sequences, specifically miR-17, miR-18a, miR-19b-1 (miR-19), miR-20a, miR-106a, miR-106b and miR-25 were tested (FIG. 1a). The assay is based on the IL3 dependence of FL5-12 lymphocytes, which undergo apoptosis when removed from IL3. In competition experiments, FL5-12 cells were partially transduced with GFP plus individual miRNAs or empty vector and these mixed populations were monitored by fluorescence-activated cell sorting (FACS) for changes in their relative proportions (FIG. 1b).
(§1) FL5-12 murine lymphocytes, IL3 depletion studies and viral transductions were as described (Mavrakis, et al., 2008) (Plas, Talapatra, Edinger, Rathmell, & Thompson, 2001). Cell cycle and cell death assays based on uptake of DNA staining dye (LDS751) using Cell cycle and Viacount assays from Guava Technologies were performed as reported (Mavrakis, et al., 2008). The retroviral vectors are based on murine stem cell virus (MSCV) and include the miRNA expression vectors encoding miRs 17, 18a, 19b-1 (miR-19), 106a, 106b, 25 (He, et al., 2005), the vectors encoding Notch-ICN (a gift from W. Pear) (Pear, et al., 1996) and Bcl2 (Wendel, et al., 2004), the individual shRNA vectors (FIG. 17) and the library vector (MRP) (FIGS. 18a and b). miRNA inhibitor oligonucleotides (antagomirs) MZIP19a-PA-1, MZIP19b-PA-1, and scrambled control (MZIP000-PA-1) were from System Biosciences.
The primary screen is based on c-MYC-induced apoptosis in MEFs (Evan, et al., 1992). MEFs were transduced with c-MYC and the miRNA library and cultured in puromycin to select for homogeneous c-MYC expression; apoptosis was triggered by diluting serum from 10% to 0.1%. Surviving cells remained adherent and were collected for DNA isolation, PCR amplification of the integrated miRNA library constructs, sub-cloning into pGEM-T vector, bacterial transformation, and sequence identification of ˜100 colonies. A secondary library was constructed by sub-cloning all miRNAs from the primary screen into an MSCV construct. The secondary screen is based on the IL-3 dependence of FL5-12 lymphocytes in vitro (Mavrakis, et al., 2010), (Plas, Talapatra, Edinger, Rathmell, & Thompson, 2001). FL5-12 cells were partially transduced with the pooled, GFP-tagged library and selected by IL-3 depletion. miRNAs were identified as above. Individual miRNAs were subsequently validated in the same FL5-12 assay and in vivo.

[2] = tested on: FL5-12 cells; experiment: Cell cycle and cell death (viability) assays in FL5-12 cells; type: cell-based, murine
Experimental: as §1

[3] = tested on: FL5-12/Bcl2 cells; experiment: Complementation studies in FL5-12 cells stably expressing Bcl2; type: cell-based, murine; settings: shifted from complete to IL3 deficient media
Experimental: The relative contribution of the novel miR-19 targets was assessed. The pro-apoptotic BIM protein opposes BCL2 and is an important regulator of lymphocyte survival (Bouillet, et al., 1999). To assess whether miR-19 has Bim-independent effects, complementation studies were conducted with FL5-12 cells engineered to stably express Bcl2 (FL5-12/Bcl2 cells). […] Similarly, expression of miR-19 was associated with continued proliferation in the presence of metformin-activated AMP kinase or expression of Pten or Pp2r5e (FIG. 16).

[4] = tested on: PTEN, BCL2L11, PHF6, IKZF1, NF1, FBXW7; experiment: 3′UTR reporter, quantitative PCR and immunoblot assays of tumor suppressor genes in murine leukemias; type: cell-based; settings: murine T-ALLs expressing NOTCH1 and miRNA, mRNA, protein
Experimental: Immunoblots of whole cell lysates were performed as described (Wendel, et al., 2004). Antibodies were against Bim/Bcl2l11 (AAP-330, 1:1000, Assay Designs), Nf1 (sc67, 1:100, Santa Cruz), Cdc4/Fbxw7 (ab7405, 1:500, Abeam), Ikzf1 (sc-13039, 1:500, Santa Cruz), Phf6 (NB100-79861, 1:1000, Novus Biologicals), Pten (9559, 1:1000, Cell Signaling), tubulin (1:5000; Sigma, B-5-1-2) and actin (1:5000; Sigma, AC-15).
Total RNA and miRNA-enriched RNA was extracted using the Allprep DNA/RNA/Protein and miRNeasy Mini kits. Pathological diagnosis was by expert hematopathologists at Weill Cornell Medical Center. cDNA synthesis, PCR and analysis by the ΔΔ Ct method were as described (Mavrakis, et al., 2008) and utilized Taqman Gene Expression Assays: Bcl2l11 (Mm00437796_m1), BCL2L11 (Hs00197982_m1), Pten (Mm01212532_m1), PTEN (Hs02621230_s1), Nf1 (Mm00812430_m1), NF1 (Hs01035104_m1), Ikzf1 (Mm01187878_m1), IKZF1 (Hs00172991_m1), Fbxw7 (Mm00504452_m1), FBXW7 (Hs00217794_m1), Phf6 (Mm00804415_m1), and Mouse GAPD (GAPDH) (4352932, Applied Biosystems). Expression was normalized to RNU6B (001093, Applied Biosystems).
The mouse FBXW7 (bp 2793-4139; acc. no. NM_001177773), human NF1 (bp 10033-10666; acc. no NM_000267), human PHF6 (bp position 3271-4299; acc. no. NM_001015877) and Bim (bp. 3155-4773; acc. no. NM_009754) 3′UTR fragments were generated by PCR and cloned into the psi-CHECK-2 vector (Promega) with the exception of the IKZF1 3′UTR, which was purchased from Genecopoeia (cat no. HmiT000397b, by 2343-4471 of UTR). The assays were performed as described (Xiao, et al., 2008).

## miR-19: miRNA of the 17˜92 cluster, UGUGCAAAUCCAUGCAAAACUGA (SEQ ID NO: 2); seed family in Table 3 (expressed or natural sequence; listed as Homo sapiens)
[1]; competition experiment, FACS
  enrichment of miRNA/GFP-expressing FL5-12 cells over parental cells upon IL3 depletion: rapidly enriched over parental cells upon IL3 depletion
[1]; retest of individual miRNAs from secondary library screen
  IL-3 independence of FL5-12 cells: confer IL-3 independence on FL5-12 cells
[2]; FL5-12 cells withdrawn from IL3 for 48 h
  Viability: 82%±1.5%
[2]; synchronized FL5-12 cells 24 h after release
  S-phase fraction: 24.5%±0.5
[3]
  enrichment of GFP-expressing FL5-12/Bcl2 cells: continued enrichment in the presence of Bcl2
[4]
  regulation of tumor suppressor genes: regulates PTEN and BCL2L11 expression

— patent US9624491B2, “Methods and compositions for the detection and treatment of cancer involving miRNAs and miRNA inhibitors and targets” (Memorial Sloan Kettering Cancer Center, priority 2010, dated 2017)
